Test results: patent publication US6372449B1, “Opthalmic methods and uses” (priority 1999, dated 2002)

Key:
ocular structures [1] = conditions: prior-art dyes, general statement; cited from earlier work
trabecular meshwork = test: Marking of the trabecular meshwork with trypan blue before laser treatment in glaucoma; format: in vivo; conditions: Patient C
Excerpt: Eye pressure is regulated in part by flow of ocular fluid (aqueous humour) through a biological valve, known as the trabecular meshwork. In glaucoma, a pathological condition where the eye pressure is raised, the eye pressure may be lowered by application of a laser energy source to the trabecular meshwork. In the prior art the success of this technique generally depends upon the presence of sufficient natural pigmentation of the trabecular meshwork which will absorb the laser energy. Using trypan blue to mark the trabecular meshwork improves identification of this structure, and the uptake of laser energy. A trypan blue solution is instilled into the eye in the location of the trabecular meshwork, and after a short time period such as from 10 seconds to one minute, the trypan blue solution is removed and the area generally irrigated to remove excess trypan blue. The now marked trabecular meshwork can be readily visually distinguished, and laser application can take place. Other ocular structures may be marked in the same manner so as to enable identification and if necessary surgical or other treatment.
Patient C is a glaucoma sufferer who has elevated eye pressure. 0.1% trypan blue is instilled into the eye of patient C through a cannular, introducing the trypan blue solution in the area with trabecular meshwork.

ocular structures [2] = test: Toxicity and permanence of staining of dyes used in the eye; conditions: trypan blue, general statement
Excerpt: A number of dyes have been used in the eye to identify vital structures, examples of dyes used include indocyanin green, rose bengal, gentian violet and methylene blue.

[3] = tested on: epiretinal and internal limiting membrane of the retina; test: Staining of the inner limiting membrane with trypan blue solution during pars plana vitrectomy; format: in vivo, patient; conditions: 0.1% w/w in physiological saline, instilled, left for 30 seconds, aspirated and irrigated; Patients A and B
Excerpt: In respect of retinal surgery for the removal of aberrant membranes or for the peeling of epiretinal and internal limiting membranes of the retina, the vitreous gel of the eye is removed by a technique known as pars plana vitrectomy, with stripping of the outer (cortical) vitreous. In place of the vitreous gel, infusion fluid is introduced into the eye via an infusion port. The inner limiting membrane may then be stained with trypan blue solution (for example 0.1% w/w) instilled with a fine silicone-tipped extrusion needle, left for 30 seconds to stain the membrane, aspirated, followed by irrigation of the area with balanced salt (physiological) solution. Peeling of the membrane proceeds and is greatly facilitated because of improved visualization of the extent of the membrane. The procedure is then completed in standard fashion with fluid-gas exchange.
Patient A required peeling of epiretinal and internal limiting membrane of the retina as part of the surgical management of premacular fibrosis and macular hole conditions.
Patient B is a diabetic suffering from severe diabetic retinopathy, with proliferative vitreo retinopathy.
A 0.1% w/w solution of trypan blue in physiological saline is prepared.
In each patient the vitreous gel of the eye is removed by pars plana vitrectomy an established procedure in the art, which involves stripping of the outer (cortical) vitreous. […]

O=C([O-])c1c(Cl)c(Cl)c(Cl)c(Cl)c1-c1c2cc(I)c(=O)c(I)c-2oc2c(I)c([O-])c(I)cc12.[Na+].[Na+] [rose bengal]
toxicity to ocular structures (ocular structures [1]): toxic to ocular structures

Cc1cc(-c2ccc(/N=N/c3c(S(=O)(=O)O)cc4cc(S(=O)(=O)O)cc(N)c4c3O)c(C)c2)ccc1/N=N/c1c(S(=O)(=O)O)cc2cc(S(=O)(=O)O)cc(N)c2c1O [trypan blue]
visualization of the trabecular meshwork (trabecular meshwork; 0.1% trypan blue instilled through a cannular, glaucoma): visualized by simple visual identification
eye pressure after laser treatment (trabecular meshwork; 0.1% trypan blue marking followed by laser light, elevated eye pressure): Successful lowering of eye pressure
uptake of laser energy (trabecular meshwork; 0.1% trypan blue, after irrigation, area subject to laser light): improving uptake of laser energy
reversibility of staining of eye structures (ocular structures [2]): does not irreversibly stain eye structures
toxicity in the eye (ocular structures [2]): non-toxic
visual identification of membranes after staining [3]: readily identified

CN(C)c1ccc(C(=C2C=CC(=[N+](C)C)C=C2)c2ccc(N(C)C)cc2)cc1 [gentian violet]
toxicity to ocular structures (ocular structures [1]): toxic to ocular structures

CC1(C)C(/C=C/C=C/C=C/C=C2\N(CCCCS(=O)(=O)[O-])c3ccc4ccccc4c3C2(C)C)=[N+](CCCCS(=O)(=O)[O-])c2ccc3ccccc3c21.[Na+] [indocyanin green]
toxicity to ocular structures (ocular structures [1]): toxic to ocular structures

CN(C)c1ccc2nc3ccc(=[N+](C)C)cc-3sc2c1 [methylene blue]
toxicity to ocular structures (ocular structures [1]): toxic to ocular structures
